Assay results reported in patent US20230107642A1 (Erasca, Inc., priority 2020, published 2023).

Biological target: T1, K-Ras G12C (Homo sapiens, UniProt P01116, G12C)
T1 construct: This protein contained 188 amino acids in total, including an N-terminal 6-Histidine tag; made in house; host or cells: E. coli BL21
Test: CAF assay (% CAF; method in Example 7, not in this part)
Type: binding

SMILES | % CAF @ 10 uM, 1h (10 uM compound, 1 h incubation) | % CAF @ 10 uM, 1h (10 uM, 1 h, Table 3) | other results
CN(C)C/C=C/C(=O)N1C2CC(=O)CC1CN(c1nc(=O)n3c4c(c(-c5ccc(F)cc5F)c(C(F)(F)F)cc14)SCC3)C2 [Example 420, (E)-10-(2,4-difluorophenyl)-7-(9-(4-(dimethylamino)but-2-enoyl)-7-oxo-3,9-diazabicyclo[3.3.1]nonan-3-yl)-9-(trifluoromethyl)-2,3-dihydro-5H-[1,4]thiazino[2,3,4-ij]quinazolin-5-one] | 93% | – | –
C=CC(=O)N1CCN(c2nc(=O)n3c4c(c(-c5ccc(F)cc5F)c(C(F)(F)F)cc24)SC[C@@H]3CN2CCN(C3COC3)CC2)[C@@H](C)C1 [Example 352, (3S)-7-((S)-4-acryloyl-2-methylpiperazin-1-yl)-10-(2,4-difluorophenyl)-3-((4-(oxetan-3-yl)piperazin-1-yl)methyl)-9-(trifluoromethyl)-2H-[1,4]thiazino[2,3,4-ij]quinazolin-5(3H)-one] | – | – | % CAF @ 10 μM, 1 h (10 μM, 1 h, Table 4): 96%
C=CC(=O)N1CCN(c2nc(=O)n3c4c(c(-c5ccc(F)cc5)c(Cl)cc24)SCC3)[C@@H](C)C1 [Example 151, (S)-7-(4-acryloyl-2-methylpiperazin-1-yl)-9-chloro-10-(4-fluorophenyl)-2,3-dihydro-5H-[1,4]thiazino[2,3,4-ij]quinazolin-5-one] | – | 94.1% | –
C=CC(=O)N1C2CN(c3nc(=O)n4c5c(c(-c6ccc(F)cc6F)c(Cl)cc35)SCC4)CC1CN(S(C)(=O)=O)C2 [Example 95, 7-(9-acryloyl-7-(methylsulfonyl)-3,7,9-triazabicyclo[3.3.1]nonan-3-yl)-9-chloro-10-(2,4-difluorophenyl)-2,3-dihydro-5H-[1,4]thiazino[2,3,4-ij]quinazolin-5-one] | – | 70.5% | –
C=CC(=O)N1[C@@H](C)CN(c2nc(=O)n3c4c(c(-c5ccc(F)cc5F)c(Cl)cc24)SCC3)C[C@@H]1C [Example 156, 7-((3S,5S)-4-acryloyl-3,5-dimethylpiperazin-1-yl)-9-chloro-10-(2,4-difluorophenyl)-2,3-dihydro-5H-[1,4]thiazino[2,3,4-ij]quinazolin-5-one] | – | 0% | –
C=CC(=O)N1C[C@H](C)N(c2nc(=O)n3c4c(c(-c5cc(F)c(F)cc5F)c(Cl)cc24)SC[C@@H]3CN2CCC3(CC2)COC3)C[C@H]1C [Example 460] | 79.7% | – | –
C=CC(=O)N1CC2CC(C1)N2c1nc(=O)n2c3c(c(-c4ccc(F)cc4F)c(Cl)cc13)SCC2 [Example 135, 7-(3-acryloyl-3,6-diazabicyclo[3.1.1]heptan-6-yl)-9-chloro-10-(2,4-difluorophenyl)-2,3-dihydro-5H-[1,4]thiazino[2,3,4-ij]quinazolin-5-one] | – | 0% | –

More lines, main results first:

% CAF @ 10 uM, 1h (10 uM compound, 1 h incubation) | SMILES | % CAF @ 10 uM, 1h (10 uM, 1 h, Table 3) | other results
97% | C=CC(=O)N1CCN(c2nc(=O)n3c4c(c(-c5ccc(F)cc5)c(C(F)(F)F)cc24)SC[C@H](OC)C3)[C@@H](C)C1 [Example 527, (R)-8-((S)-4-acryloyl-2-methylpiperazin-1-yl)-11-(4-fluorophenyl)-3-methoxy-10-(trifluoromethyl)-3,4-dihydro-2H,6H-[1,4]thiazepino[2,3,4-ij]quinazolin-6-one] | – | –
72.9% | C=CC(=O)N1C[C@H](C)N(c2nc(=O)n3c4c(c(-c5ccc(F)cc5F)c(C(F)(F)F)cc24)SC[C@@H]3COCCOC)C[C@H]1C (atropisomer, axis not shown) [Example 510, (3S,10S)-7-((2S,5R)-4-acryloyl-2,5-dimethylpiperazin-1-yl)-10-(2,4-difluorophenyl)-3-((2-methoxyethoxy)methyl)-9-(trifluoromethyl)-2,3-dihydro-5H-[1,4]thiazino[2,3,4-ij]quinazolin-5-one] | – | –
54.3% | C=CC(=O)N1CCN(c2nc(=O)n3c4c(c(-c5ccc(F)c6[nH]ncc56)c(Cl)cc24)SCC3)[C@@H](C)C1 [Example 419, 7-((S)-4-acryloyl-2-methylpiperazin-1-yl)-9-chloro-10-(7-fluoro-1H-indazol-4-yl)-2,3-dihydro-5H-[1,4]thiazino[2,3,4-ij]quinazolin-5-one] | – | –
